In patent US20110044952A1, “AMPLIFICATION OF CANCER-SPECIFIC ONCOLYTIC VIRAL INFECTION BY HISTONE DEACETYLASE INHIBITORS” (Ottawa Health Research Institute, priority 2007, published 2011):
Entries after “also recorded” stand apart in the source; their conditions may differ. Like-named read-outs stand apart in the source and are kept apart here.

Assays:
[1] = system: DBT glioma cells; conditions: mouse
[2] = system: VSVΔ51-Luc; set-up: species or system BALB/c mice; conditions: mouse, in vivo, 20 mg/kg
[3] = system: VSV-d51-GFP
[4] = system: PC3 cells; type: cell-based
[5] = system: IFN antiviral response pathway; type: cell-based
[6] = system: VSVΔ51 neutralizing antibody; conditions: mouse, in vivo
[7] = system: VSV-d51-GFP; type: cell-based
[8] = system: VSVΔ51-Luc; set-up: species or system CD1 nude mice; conditions: mouse, in vivo
[9] = system: IFN antiviral response; type: cell-based
[10] = system: VVDD; type: cell-based, vaccinia virus
[11] = system: IFN-α; type: cell-based, human
[12] = system: primary prostate cancer cells; type: cell-based
[13] = system: normal PBMCs
[14] = system: semliki forest virus (VA7); experiment: Semliki forest virus (VA7) spread and titers in glioma cell lines; type: cell-based
[15] = system: B16-F10-lacZ; experiment: B16-F10-lacZ lung metastasis model; type: in vivo, C57BI6 mice; conditions: 0.05 mg TSA i.p. daily to day 4 + 10^7 pfu VVdd i.v. twice; lungs day 14; p<0.05 vs PBS, VVdd or TSA single treatments
[16] = system: VVDD; type: cell-based, vaccinia virus; conditions: TSA 0.156 μM 3 hours pre-treatment
[17] = system: VSV-d51-GFP; type: cell-based; conditions: 24 hours

CCC(=O)CCCCC[C@@H]1NC(=O)[C@H]2CCCCN2C(=O)[C@H]([C@@H](C)CC)NC(=O)[C@H](Cc2cn(OC)c3ccccc23)NC1=O [Apicidin]
VA7-mediated cytotoxicity (cell viability) [1]: enhance VA7-mediated cytotoxicity

Nc1ccccc1NC(=O)c1ccc(CNC(=O)OCc2cccnc2)cc1 [MS-275]
viral replication (IVIS) [2]: more robust and persistent viral replication | sensitivity of normal tissue to VSV infection [3]: specific towards cancer cells | JC-1 green fluorescence (mitochondrial membrane potential) [4]: increased JC-1 green fluorescence | activation of caspase 9 (immunoblot) [4]: significant activation | number of Annexin V-positive apoptotic cells (flow cytometry) [4]: synergistically enhanced the number of Annexin V-positive apoptotic cells | visible signs of cell death (phase-contrast microscopy) [4]: not able to induce visible signs of cell death | IRF3 phosphorylation [5]: allowed detection of IRF3 phosphorylation and concomitant degradation | activation of IRF7, ISG56 and RIG-I [5]: inhibited | VSV neutralizing antibody production [6]: Inhibit | VSV-G specific antibody production (miniblot) [6]: Inhibit | VSV replication (GFP-positive cells, fluorescent microscopy) [7]: allowed effective VSV replication | VSV antigen in tumors (IHC of frozen sections) [8]: more abundant presence of VSV antigen | viral replication in tumor-bearing mice (IVIS) ([8]; ip): more robust viral replication | VSV replication in SW620 tumors ([8]; iv): enhancing effect | induction of MxA mRNA [9]: decreased the induction of MxA mRNA | level of IFN-β mRNA [9]: significantly lower; also recorded: undetectable levels | replication of VVDD [10]: able to synergize the replication of VVDD in 4T1, B16 and SW620 cells | IFN production (IFN-α ELISA) [11]: significantly inhibited IFN production | VSV in spleen and lungs (24 hours): sensitive/permissive to VSV | VSV in spleen and lungs (72 hours): started to clear out | loss of total weight (mouse, in vivo): approximately 15% | survival of mice (mouse, in vivo): all of the mice survived | VSV biodistribution in major organs (mouse, in vivo, iv): comparable results of viral spread and replication in major organs | VSV replication (GFP, flow cytometry) [12]: allowed effective VSV replication | VSV-GFP replication (flow cytometry) [13]: did not increase VSV-GFP replication

O=C(CCCCCCC(=O)Nc1ccccc1)NO [SAHA, suberoylanilide hydroxamic acid]
sensitivity of normal tissue to VSV infection [3]: specific towards cancer cells | JC-1 green fluorescence (mitochondrial membrane potential) [4]: increased JC-1 green fluorescence | activation of caspase 9 (immunoblot) [4]: significant activation | number of Annexin V-positive apoptotic cells (flow cytometry) [4]: synergistically enhanced the number of Annexin V-positive apoptotic cells | visible signs of cell death (phase-contrast microscopy) [4]: not able to induce visible signs of cell death | IRF3 phosphorylation [5]: allowed detection of IRF3 phosphorylation and concomitant degradation | activation of IRF7, ISG56 and RIG-I [5]: inhibited | VSV replication (GFP-positive cells, fluorescent microscopy) [7]: allowed effective VSV replication | induction of MxA mRNA [9]: decreased the induction of MxA mRNA | level of IFN-β mRNA [9]: significantly lower; also recorded: undetectable levels | IFN production (IFN-α ELISA) [11]: significantly inhibited IFN production | VA7 viral titers (pfu/ml) ([14]; SAHA 5 μM or Apicidin 1 μM 1 hour pre-treatment, MOI 0.01, DBT, CT2A, U251 cells, vs DMSO): enhanced the viral titers | Semliki forest virus spread (GFP photomicrographs) ([14]; SAHA 5 μM or Apicidin 1 μM, DBT cells, MOI 0.01, 30 hours): Enhance | VSV replication (GFP, flow cytometry) [12]: allowed effective VSV replication | VSV-GFP replication (flow cytometry) [13]: did not increase VSV-GFP replication | VA7-mediated cytotoxicity (cell viability) [1]: enhance VA7-mediated cytotoxicity

CC(/C=C/C(=O)NO)=C\[C@@H](C)C(=O)c1ccc(N(C)C)cc1 [Trichostatin A]
number of lung metastases [15]: Reduces the Number of Metastases | VVdd spread (GFP photomicrographs) ([16]; MOI 0.1, 48 h): Increases | VVdd titers (pfu/ml) ([16]; MOI 0.1, 72 h): Increases

IFN-α
cell permissiveness to viral infection (GFP expression) [17]: decrease cell permissiveness to viral infection

z-VAD-fmk
activation of apoptosis by VSV+MS-275 or VSV+SAHA (Annexin V) [4]: abrogated activation of apoptosis
